Assay [1] concerns rats. The assay can be described thus: Elevated plus maze. It is filed as in vivo. As to conditions: intra-NAc; for number of entries into the open arms: Experiment 3, FIG. 13. Here is the method:
In these experiments, the following was measured: • 1. Time in open arms • 2. Entries into open arms
In these experiments, the apparatus of FIG. 7 was used.
As shown, the apparatus includes 2 open arms and 2 closed arms that form a plus shape. Rats feel more secure in closed spaces and thus it would be expected that more anxious rats would spend more time in the closed arms and less time on the open arms.
Before each test, the same doses of drugs used in the electrophysiology experiments were infused.
The rat was then placed in the middle of the apparatus, facing into the closed arms and recorded for 10 minutes.
The number of entries into the open arms and the total time spent in the open arms was recorded. Less anxious rats would be expected to make more entries into the open arms and spend more time there as well.

The test system of assay [2] is dopamine neurons in the ventral tegmental area (VTA). The assay can be described thus: Electrophysiology: VTA dopamine neuron recording after intra-NAc infusion. It is filed as in vivo, rats. Here is the method:
Three experiments were run of this type. All included a vehicle. In addition, the components were as follows: • Experiment 1: • 100 ng CBD; 100 ng CBD+100 ng T007; 100 ng T007 • Experiment 2: • 50 ng CBD; 0.5 nmol n−3; 50 ng CBD+0.5 nmol n−3 • Experiment 3: • 1 ng CBD; 0.25 nmol n−3; 1 ng CBD+0.25 nmol n−3; 1 ng CBD+0.25 nmol n−3+100 ng T007 • In the above: • CBD=cannabidiol • T007=T0070907 (PPARg antagonist) • n−3=omega-3
The omega-3 formulation includes equal amounts of DHA and EPA. Two doses were used in this study. 0.5 nmol n−3 is made up of 0.5 nmol DHA and 0.5 nmol EPA. 0.25 nmol n−3 is made up of 0.25 nmol DHA and 0.25 nmol EPA.
In this procedure, rats were anesthetized with urethane. An electrode was used to record the baseline frequency of dopamine neurons in the ventral tegmental area (VTA) for 5 minutes. After the baseline recording, combinations of CBD, omega-3, and T007 (a PPARg antagonist) were infused into the nucleus accumbens (NAc).
The post-infusion frequency of that neuron was compared to its pre-infusion frequencies.
One of the characteristics of dopamine cells is that they have a tonic mode of firing and a burst mode of firing. Therefore, both the frequency and burst changes following infusions were analyzed. FIG. 1 looks at the frequency of VTA dopamine cells. The Y-axis is frequency (% Baseline). […] This means that after an intra-NAc infusion of 100 ng CBD, the dopamine cell would decrease in frequency about 15%.
FIG. 2 looking at difference in burst percentage. A burst is a group of signals occurring in a short period of time. Specifically, in this experiment, a burst is defined to be an event where 2 spikes occur within a timespan of 80 ms. […] As such, the number of bursts that occurred during pre-infusion was recording and the number of spikes that occurred in those bursts was determined. The number of those spikes occurring in those bursts was divided by the total number of spikes that occurred during the pre-infusion recording The same was done for the post-infusion recording and the difference between these 2 values was determined.

For assay [3], the system named is rats. The assay can be described thus: Light dark box. To be noted: for time to make the second transition back into the light box: Experiment 1, FIG. 16, 100 ng T007. It is filed as in vivo. Here is the method:
In these experiments, the following was measured: • 1. First transition to the dark box • 2. Second transition to the light box • 3. Total number of transitions • 4. Time spent in the light box
One half of the box is open at the top and is brightly lit. There is an opening to the dark-box that is covered by a lid.
Rats would prefer to be in the dark box and would be anxious about going into the light box.
Following the infusion, the rate is placed in the light box facing away from the opening to the dark box. A 10 minute recording is made. During these 10 minutes, measurements are made of four things: • 1. The time it takes for the rat to make the first transition into the dark box • 2. The time it takes for the rat to make the second transition from the dark box back into the light box • 3. Number of transitions between boxes • 4. Time spent in light box
Therefore, it would be expected than less anxious rats would take a longer time to make the first transition into the dark box, spend less time to make the second transition into the light box, make more transitions between boxes, and spend more time in the light box.

Assay [4] concerns rats. The assay can be described thus: Olfactory fear conditioning. It is filed as in vivo. As to conditions: Experiment 3, FIG. 36, 1 ng CBD, 0.25 nmol omega-3. An excerpt: The olfactory fear conditioning protocol is for measurement of the formation of fear memory. This protocol lasts three days. On day 1, the rat is habituated to two boxes (one with a striped background and one with a polka dot back ground).
On day 2, the rat receives a drug infusion and is placed into one of the boxes (previously assigned as the “shock box”). While in the box, the rat is exposed to 2 odours (peppermint and almond). The rat is exposed to one odour followed by the other odour 5 times. One of these odours were previously assigned as the “shock” odour (CS+) such that after exposure to the “shock” odour, the rat would receive a foot shock. There was no foot shock following exposure to the “safe” odour (CS−). On day 3, the rat was placed in the safe box. They were exposed to each odour (both CS+ and CS−) one at a time for 5 minutes. During the 5 minutes, freezing behaviour was recorded.
It would be expected that CBD would block the formation of fear memory and the rats would freeze a similar amount to CS+ and CS−.
2-way repeated measures ANOVA was performed for the three experiments. With reference to FIG. 34, there was no significant interaction effect by group x CS (p=0.209).

Setting [5] is: Experiment 3, FIG. 12, 1 ng CBD, 0.25 nmol omega-3, combination, combination+100 ng T007.
Where [6] appears, read: 1 ng CBD, 0.25 nmol omega-3, combination, combination+100 ng T007.
Setting [7] is: Experiment 3, FIG. 5, 1 ng CBD, 0.25 nmol omega-3, 1 ng CBD+0.25 nmol omega-3, combination+100 ng T007, intra-NAc, compared to vehicle.
The mark [8] stands for this setting: 100 ng CBD, 100 ng CBD+100 ng T007.
[9] abbreviates: Experiment 3, FIG. 24, 1 ng CBD, 0.25 nmol omega-3, combination, combination+100 ng T007.
Where [10] appears, read: first experiment, FIG. 17, 100 ng CBD, 100 ng CBD+100 ng T007.
The mark [11] stands for this setting: first experiment, FIG. 18, 100 ng CBD, 100 ng CBD+100 ng T007.

Each structure is given as a SMILES string.

With `C=C(C)[C@@H]1CCC(C)=C[C@H]1c1c(O)cc(CCCCC)cc1O` [CBD, cannabidiol], the “time spent in open arms” value was “slight increase” in the assay with rats [1] (Experiment 1, FIG. 8, 100 ng CBD, 100 ng CBD+100 ng T007, 100 ng T007, 10 minutes); “not effective” in the assay on rats [1] (Experiment 2, FIG. 10, 50 ng CBD, 0.5 nmol omega-3, 50 ng CBD+0.5 nmol omega-3); “ineffective” with rats [1] (setting [5]). In addition, the “number of entries into open arms” value in the assay with rats [1] (Experiment 1, FIG. 9, 100 ng CBD, 100 ng CBD+100 ng T007, 100 ng T007, 10 minutes) is listed as “slight increase”; in the assay on rats [1] (Experiment 2, FIG. 11, 50 ng CBD, 0.5 nmol omega-3, 50 ng CBD+0.5 nmol omega-3), “not effective”. Further, the “number of entries into the open arms” value with rats [1] (setting [6]) was “not effective”. Besides, the “frequency (% Baseline) of VTA dopamine cells” value in assay [2] (Experiment 1, FIG. 1, 100 ng CBD intra-NAc infusion, post- vs pre-infusion) was “about 85%”. Moreover, the VTA dopamine frequency entry in assay [2] (Experiment 1, FIG. 1, 100 ng CBD, 100 ng CBD+100 ng T007, 100 ng T007, intra-NAc) is “decreasing trend”. Further, in assay [2] (Experiment 1, FIG. 1, after intra-NAc infusion of 100 ng CBD), the “decrease in frequency of the dopamine cell” value is on record as “about 15%”. The “difference in burst percentage (VTA DA bursts)” value in assay [2] (Experiment 1, FIG. 2, 100 ng CBD, 100 ng CBD+100 ng T007, 100 ng T007, intra-NAc) is listed as “very slight decrease”. The VTA dopamine activity result in assay [2] (Experiment 2, FIG. 3, 50 ng CBD, 0.5 nmol omega-3, 50 ng CBD+0.5 nmol omega-3, intra-NAc) is “ineffective”; in assay [2] (setting [7]) it was “not different from vehicle”. In addition, the “time to make the second transition back into the light box” value in the assay on rats [3] (setting [8]) is recorded as “significantly decreased”. The “time to make the second transition” value with rats [3] (Experiment 2, FIG. 20, 50 ng CBD, 0.5 nmol omega-3, 50 ng CBD+0.5 nmol omega-3) is reported as “not effective”; with rats [3] (setting [9]) it was “ineffective”. Also, the “number of transitions between boxes” value in the assay with rats [3] (Experiment 3, FIG. 25, 1 ng CBD, 0.25 nmol omega-3, 1 ng CBD+0.25 nmol omega-3) is on record as “ineffective”; with rats [3] (setting [10]), “significantly increased”. The “time spent in the light box” value in the assay on rats [3] (Experiment 3, FIG. 26, 1 ng CBD, 0.25 nmol omega-3, 1 ng CBD+0.25 nmol omega-3) is recorded as “ineffective”; in the assay on rats [3] (setting [11]) it was “significantly increased”. Further, the “freezing time compared to vehicle” value in the assay on rats [4] (1 ng CBD+0.25 nmol omega-3) was “not different from vehicle”.
With `O=C(Nc1ccncc1)c1cc([N+](=O)[O-])ccc1Cl` [T007], in the assay on rats [1] (setting [5]), the “time spent in open arms” value is “blocked”. The “number of entries into the open arms” value in the assay with rats [1] (setting [6]) was “blocked”. Also, in assay [2] (setting [7]), the VTA dopamine activity entry is “blocked”. Besides, in the assay with rats [3] (setting [8]), the “time to make the second transition back into the light box” value was “blocked”. Further, the “time to make the second transition” value with rats [3] (setting [9]) is given as “blocked”. Besides, the “number of transitions between boxes” value with rats [3] (setting [10]) is listed as “blocked”. In the assay on rats [3] (setting [11]), the “time spent in the light box” value was “blocked”. Moreover, the “difference between the freezing time to CS+ and CS− (fear memory formation)” value with rats [4] (combination, combination+100 ng T007) is on record as “blocked slightly”.

Source of the values: patent US20260191811A1, “COMBINATION OF CANNABIDIOL AND A PPAR AGONIST” (priority 2020, published 2026).
